Values of other authors as cited in patent US10208063B2, “ACC inhibitors and uses thereof” (Gilead Apollo, LLC, priority 2013, dated 2019).
pIC50: −log10 of the molar value.

Columns and labels:
[1] = sucrose-fed rats, three weeks
[2] = target: T1, propionyl-CoA carboxylase (Homo sapiens, UniProt P05165+P05166)
T1 sequence (P05165 53-728): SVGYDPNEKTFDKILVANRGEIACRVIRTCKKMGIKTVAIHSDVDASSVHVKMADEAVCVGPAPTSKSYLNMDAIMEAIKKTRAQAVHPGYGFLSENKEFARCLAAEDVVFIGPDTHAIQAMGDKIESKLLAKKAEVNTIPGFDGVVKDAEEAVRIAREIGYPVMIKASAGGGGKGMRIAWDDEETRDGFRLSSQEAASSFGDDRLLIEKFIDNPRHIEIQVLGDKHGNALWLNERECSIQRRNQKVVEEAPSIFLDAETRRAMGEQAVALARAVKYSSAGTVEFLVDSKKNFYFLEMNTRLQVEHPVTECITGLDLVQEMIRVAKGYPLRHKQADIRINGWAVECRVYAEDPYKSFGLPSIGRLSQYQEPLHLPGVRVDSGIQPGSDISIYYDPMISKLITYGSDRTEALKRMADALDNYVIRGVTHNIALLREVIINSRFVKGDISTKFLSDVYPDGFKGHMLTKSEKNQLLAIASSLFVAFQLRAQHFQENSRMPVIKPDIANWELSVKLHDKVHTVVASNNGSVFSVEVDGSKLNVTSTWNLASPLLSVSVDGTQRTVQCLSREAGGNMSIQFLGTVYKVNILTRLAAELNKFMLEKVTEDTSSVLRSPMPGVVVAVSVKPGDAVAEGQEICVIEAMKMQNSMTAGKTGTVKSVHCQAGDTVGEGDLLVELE
T1 sequence (P05166 29-539): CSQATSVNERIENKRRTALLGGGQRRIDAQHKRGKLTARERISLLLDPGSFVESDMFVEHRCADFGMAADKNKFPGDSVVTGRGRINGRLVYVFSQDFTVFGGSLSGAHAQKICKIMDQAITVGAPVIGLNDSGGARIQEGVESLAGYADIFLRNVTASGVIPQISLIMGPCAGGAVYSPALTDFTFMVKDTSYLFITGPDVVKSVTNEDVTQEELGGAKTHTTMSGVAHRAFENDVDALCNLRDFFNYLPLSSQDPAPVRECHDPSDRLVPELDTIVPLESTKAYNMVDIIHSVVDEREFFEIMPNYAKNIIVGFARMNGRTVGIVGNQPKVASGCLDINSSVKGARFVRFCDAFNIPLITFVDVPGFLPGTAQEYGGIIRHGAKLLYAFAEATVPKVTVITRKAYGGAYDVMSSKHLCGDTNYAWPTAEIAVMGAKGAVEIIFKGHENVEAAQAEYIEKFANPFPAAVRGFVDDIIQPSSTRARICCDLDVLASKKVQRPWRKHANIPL

ACC1 = ACC1 isolated from rat, mouse, monkey and human
pyruvate carboxylase = target: T2, pyruvate carboxylase (Homo sapiens, UniProt P11498)
T2 sequence (P11498 21-1178): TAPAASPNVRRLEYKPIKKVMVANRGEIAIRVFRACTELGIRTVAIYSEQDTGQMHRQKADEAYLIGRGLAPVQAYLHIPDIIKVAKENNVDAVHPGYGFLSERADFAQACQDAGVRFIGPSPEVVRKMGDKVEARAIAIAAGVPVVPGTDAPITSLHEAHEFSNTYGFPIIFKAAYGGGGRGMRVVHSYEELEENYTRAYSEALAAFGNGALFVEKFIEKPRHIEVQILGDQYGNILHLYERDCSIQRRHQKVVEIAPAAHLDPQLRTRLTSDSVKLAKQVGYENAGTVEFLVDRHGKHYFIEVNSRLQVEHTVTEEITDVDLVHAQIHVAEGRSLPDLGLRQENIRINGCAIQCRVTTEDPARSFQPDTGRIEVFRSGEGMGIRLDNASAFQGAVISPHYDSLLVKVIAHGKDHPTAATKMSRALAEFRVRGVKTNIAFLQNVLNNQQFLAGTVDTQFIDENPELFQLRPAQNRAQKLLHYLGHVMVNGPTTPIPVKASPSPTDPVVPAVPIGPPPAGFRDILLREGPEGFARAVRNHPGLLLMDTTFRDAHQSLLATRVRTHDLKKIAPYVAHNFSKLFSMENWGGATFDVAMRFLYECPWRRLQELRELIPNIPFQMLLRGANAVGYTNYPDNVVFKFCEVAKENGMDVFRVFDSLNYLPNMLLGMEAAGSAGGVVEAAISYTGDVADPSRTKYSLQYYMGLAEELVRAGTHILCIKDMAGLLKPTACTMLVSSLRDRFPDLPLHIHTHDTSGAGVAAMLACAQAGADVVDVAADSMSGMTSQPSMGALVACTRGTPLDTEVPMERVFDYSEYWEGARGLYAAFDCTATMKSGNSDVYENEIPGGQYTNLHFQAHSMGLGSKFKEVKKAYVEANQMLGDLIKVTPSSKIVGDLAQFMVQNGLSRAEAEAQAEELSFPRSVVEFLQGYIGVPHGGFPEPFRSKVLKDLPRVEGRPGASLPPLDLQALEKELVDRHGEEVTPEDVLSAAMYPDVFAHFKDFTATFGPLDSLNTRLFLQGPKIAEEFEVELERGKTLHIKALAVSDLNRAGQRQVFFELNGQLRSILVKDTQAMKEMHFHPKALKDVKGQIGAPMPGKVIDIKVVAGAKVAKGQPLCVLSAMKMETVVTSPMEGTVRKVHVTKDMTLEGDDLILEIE

[3] = rats, acute (46 min) treatment
[4] = system: insulin-resistant rat muscle tissue; details: within 30 min of compound administration
ACC2 = ACC2 isolated from rat, mouse, monkey and human

## CO[C@H]1CCCC[C@@H](c2ccccc2)OC(=O)[C@@H](C)[C@@]2(O)O[C@H]([C@@H](C)[C@H](O)[C@H]2OC)[C@@H](C)/C=C/[C@H]1OC [soraphen A]
liposarcoma
  lipogenesis: inhibited
  tumor cell growth: inhibited

## O=C(c1c2ccccc2cc2ccccc12)N1CCC(N2CCC[C@@H](C(=O)N3CCOCC3)C2)CC1 [CP-640186]
[1]
  insulin sensitivity: improved
  leptin levels: reduced
  liver, muscle and adipose triglycerides: time- and dose-dependently reduced
[1]; selective fat reduction without reducing lean body mass
  body weight: reduced
[1]; without changing plasma glucose levels
  hyperinsulinemia produced by the high sucrose diet: reduced
[2]
  inhibition of propionyl-CoA carboxylase: without inhibiting
ACC1
  pIC50: ~7.22
Experimental animals
  liver and adipose tissue FA synthesis: reduced
  whole body FA oxidation: increased
Lipogenic and oxidative tissues, fed and fasted state
  malonyl-CoA concentration: acutely reduced
Pyruvate carboxylase
  inhibition of pyruvate carboxylase: without inhibiting
C2C12 cells
  FA oxidation: stimulated
[3]
  FA clearance: stimulated
  glucose clearance: without decreasing
Rat muscle slices
  FA oxidation: stimulated
[4]
  insulin sensitivity: stimulation
ACC2
  pIC50: ~7.22
Hep-G2 cells
  CPT-I activity: increased
  FA synthesis: reduced
  apoA1 secretion: without affecting
  apoB secretion: reduced
  cholesterol synthesis: without affecting
  triglyceride synthesis and secretion: reduced
